Structures can show the parent of a compound that is named as a salt. Where two headings read alike, the source gives them in different places.
Columns and labels:
[1] = physchem; type: physicochemical; settings: 5% dextrose solution, read-out: antibacterial activity retained in a 24 hour period
Method: The antibacterial activity retained in a 24 hour period by the acetaldehyde derivative when dissolved in 5% dextrose solutions at 0.5 and 1.0% concentration is 83% and 80% respectively. The sodium salt of amoxicillin retains less than 40% activity under the same conditions.

[2] = physchem; settings: water
Method: To illustrate the relative stability of the compounds of this invention in aqueous solution at room temperature the sodium salts of the compounds were tested as 20% by weight aqueous solutions for activity by microbiological assay using B. subtilis as the test organism and compared to 10% and 20% aqueous solutions of amoxicillin sodium salt and 10% aqueous solution of the acetone derivative of amoxicillin.

[3] = system: S. schottmuelleri; test: Curative dose against systemic S. schottmuelleri infection; type: in vivo, mice; settings: Mus musculus, read-out: CD50 (the source's name)
[4] = system: S. pyogenes; test: Curative dose against systemic S. pyogenes infection; type: in vivo, mice; settings: Streptococcus pyogenes, in Mus musculus, read-out: CD50 (the source's name)
[5] = system: S. typhosa; test: Curative dose against systemic S. typhosa infection; type: in vivo, mice; settings: Mus musculus, po, read-out: CD50 (the source's name)
Method: (§1) In order to illustrate the relative activity of the compounds of this invention as compared to amoxicillin, the compounds, represented by the acetaldehyde derivative, were tested orally against systemic bacterial infections of mice with the following results. The CD50 is the curative dose in 50% of the animals treated against a challenge organism.

[6] = system: S. typhosa; test: as above; type: in vivo, mice; settings: Mus musculus, sc, read-out: CD50 (the source's name)
[7] = system: E. coli; test: Curative dose against systemic E. coli infection; type: in vivo, mice; settings: Escherichia coli, in Mus musculus, read-out: CD50 (the source's name)
[8] = system: K. pneumoniae; test: Curative dose against systemic K. pneumoniae infection; type: in vivo, mice; settings: Klebsiella pneumoniae, in Mus musculus, read-out: CD50 (the source's name)
[9] = in vivo
[10] = system: S. aureus; test: Curative dose against systemic S. aureus infection; type: in vivo, mice; settings: Staphylococcus aureus, in Mus musculus, read-out: CD50 (the source's name)
[11] = system: D. pneumoniae; test: Curative dose against systemic D. pneumoniae infection; type: in vivo, mice; settings: Streptococcus pneumoniae, in Mus musculus, read-out: CD50 (the source's name)
[12] = system: E. coli; test: Curative dose against systemic E. coli infection; type: in vivo, mice; settings: Escherichia coli, in Mus musculus, po
Method: as §1

[13] = po, butyraldehyde derivative comparison
[14] = sc, butyraldehyde derivative comparison
[15] = butyraldehyde derivative comparison
[16] = Table 3(b), po, acetaldehyde derivative comparison
[17] = Table 3(b), sc, acetaldehyde derivative comparison
[18] = Table 3(b), acetaldehyde derivative comparison

SMILES: CC1(C)S[C@@H]2[C@H](NC(=O)[C@H](N)c3ccc(O)cc3)C(=O)N2[C@H]1C(=O)O [Amoxicillin sodium salt]
- remaining at 24 h ([1]; 5% dextrose solutions, same conditions (0.5 and 1.0%)): < 40%
- remaining at 1 h [2]: 100%
- remaining at 2 h [2]: 91%
- remaining at 4 h [2]: 65%
- remaining at 6 h [2]: 59%
- remaining at 6.5 h [2]: 58%
- remaining at 24 h [2]: 38%

SMILES: CCCC1N[C@H](c2ccc(O)cc2)C(=O)N1[C@@H]1C(=O)N2[C@@H]1SC(C)(C)[C@@H]2C(=O)O (stereo partly drawn) [Butyraldehyde derivative]
- ED50 [3, 13]: 5.7 mg/kg
- ED50 [3, 14]: 3.2 mg/kg
- ED50 [4, 13]: < 0.05 mg/kg
- ED50 [4, 14]: 0.01 mg/kg
- ED50 [5, 15]: 2.9 mg/kg
- ED50 [6, 15]: 0.85 mg/kg
- ED50 [7, 13]: 12 mg/kg
- ED50 [7, 14]: 3.9 mg/kg
- ED50 [8, 13]: 46 mg/kg
- ED50 [8, 14]: 16 mg/kg
- LD50 ([9]; ip): 7270 mg/kg
- LD50 ([9]; po): > 10000 mg/kg
- LD50 ([9]; sc): 10000 mg/kg
- ED50 [10, 13]: 0.2 mg/kg
- ED50 [10, 14]: 0.11 mg/kg
- ED50 [11, 13]: 2.1 mg/kg
- ED50 [11, 14]: 2.5 mg/kg
- remaining at 1 h [2]: 95%
- remaining at 2 h [2]: 83%
- remaining at 6 h [2]: 83%
- remaining at 24 h [2]: 70%

SMILES: CC1N[C@H](c2ccc(O)cc2)C(=O)N1[C@@H]1C(=O)N2[C@@H]1SC(C)(C)[C@@H]2C(=O)O (stereo partly drawn) [Acetaldehyde derivative]
- ED50 ([12]; Table 3(b), acetaldehyde derivative comparison, read-out: CD50 (the source's name)): 4.6 mg/kg
- ED50 ([12]; read-out: CD50, Table 2, PO, mice): 5 mg/kg
- ED50 [3, 16]: 6.4 mg/kg
- ED50 [3, 17]: 3.4 mg/kg
- remaining at 24 h ([1]; 0.5% concentration): 83%
- remaining at 24 h ([1]; 1.0% concentration): 80%
- ED50 [4, 16]: 1.7 mg/kg
- ED50 [4, 17]: < 0.05 mg/kg
- ED50 [5, 18]: 8.8 mg/kg
- ED50 [6, 18]: 6.5 mg/kg
- ED50 ([7]; sc, Table 3(b), sc, acetaldehyde derivative comparison): 6.9 mg/kg
- ED50 [8, 16]: 17 mg/kg
- ED50 [8, 17]: 11 mg/kg
- LD50 ([9]; ip): 9200 mg/kg
- LD50 ([9]; po): > 10000 mg/kg
- LD50 ([9]; sc): > 10000 mg/kg
- ED50 [10, 16]: 0.77 mg/kg
- ED50 [10, 17]: 1.3 mg/kg
- ED50 [11, 16]: 12 mg/kg
- ED50 [11, 17]: 0.76 mg/kg
- remaining at 1 h [2]: 100%
- remaining at 2 h [2]: 99%
- remaining at 4 h [2]: 99%
- remaining at 6 h [2]: 98%
- remaining at 6.5 h [2]: 98%
- remaining at 24 h [2]: 94%

— patent US4029805A, “Semisynthetic penicillins” (Hoffmann-La Roche Inc., priority 1976, dated 1977)
